pKi: −log10 of the molar value.
biological target: Bcl-2 protein (Homo sapiens (Human), UniProt P10415); assay: Bcl-2 binding TR-FRET (Time-Resolved Fluorescence-Resonance-Energy-Transfer) assay; settings: inhibition constant for binding to Bcl-2 protein
Text: The smaller the Ki value, the greater is the binding affinity.

Sequence of Bcl-2 protein (P10415 whole entry): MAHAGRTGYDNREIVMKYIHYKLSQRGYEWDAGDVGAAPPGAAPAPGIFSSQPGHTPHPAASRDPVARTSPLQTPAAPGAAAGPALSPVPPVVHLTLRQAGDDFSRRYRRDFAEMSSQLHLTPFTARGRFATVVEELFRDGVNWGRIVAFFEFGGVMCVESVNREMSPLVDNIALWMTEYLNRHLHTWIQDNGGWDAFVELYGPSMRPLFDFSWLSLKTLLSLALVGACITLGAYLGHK

Row | SMILES | pKi
1 | CC1(C)CCC(CN2CCN(c3ccc(C(=O)NS(=O)(=O)c4ccc(NCC5COCCN5)c([N+](=O)[O-])c4)c(Oc4cnc5[nH]ccc5c4)c3)CC2)=C(c2ccc(Cl)cc2)C1 (stereo not shown) [Compound 66, 4-(4-{[2-(4-chlorophenyl)-4,4-dimethylcyclohex-1-en-1-yl]methyl}piperazin-1-yl)-N-({4-[(morpholin-3-ylmethyl)amino]-3-nitrophenyl}sulfonyl)-2-(1H-pyrrolo[2,3-b]pyridin-5-yloxy)benzamide] | > 11.00
2 | CC1(C)CCC(CN2CCN(c3ccc(C(=O)NS(=O)(=O)c4cnc(NC[C@H]5CC[C@](C)(O)CC5)c([N+](=O)[O-])c4)c(Oc4cnc5[nH]ccc5c4)c3)CC2)=C(c2ccc(Cl)cc2)C1 [Compound 376, 4-(4-{[2-(4-chlorophenyl)-4,4-dimethylcyclohex-1-en-1-yl]methyl}piperazin-1-yl)-N-[(6-{[(cis-4-hydroxy-4-methylcyclohexyl)methyl]amino}-5-nitropyridin-3-yl)sulfonyl]-2-(1H-pyrrolo[2,3-b]pyridin-5-yloxy)benzamide] | > 12.00
3 | CC1(C)CCC(c2ccc(Cl)cc2)=C(CN2CCN(c3ccc(C(=O)NS(=O)(=O)c4ccc(OCC5(F)CCOCC5)c([N+](=O)[O-])c4)c(Oc4cnc5[nH]ccc5c4)c3)CC2)C1 [Compound 119, 4-(4-{[2-(4-chlorophenyl)-5,5-dimethylcyclohex-1-en-1-yl]methyl}piperazin-1-yl)-N-({4-[(4-fluorotetrahydro-2H-pyran-4-yl)methoxy]-3-nitrophenyl}sulfonyl)-2-(1H-pyrrolo[2,3-b]pyridin-5-yloxy)benzamide] | > 11.00
4 | CC1(C)CCC(CN2CCN(c3ccc(C(=O)NS(=O)(=O)c4cnc(OCC5(F)CCN(CC(F)F)CC5)c(Cl)c4)c(Oc4cnc5[nH]ccc5c4)c3)CC2)=C(c2ccc(Cl)cc2)C1 [Compound 285, N-[(5-chloro-6-{[1-(2,2-difluoroethyl)-4-fluoropiperidin-4-yl]methoxy}pyridin-3-yl)sulfonyl]-4-(4-{[2-(4-chlorophenyl)-4,4-dimethylcyclohex-1-en-1-yl]methyl}piperazin-1-yl)-2-(1H-pyrrolo[2,3-b]pyridin-5-yloxy)benzamide] | > 11.00
5 | CC1(C)CCC(CN2CCN(c3ccc(C(=O)NS(=O)(=O)c4ccc(NCC5CN(S(C)(=O)=O)CCO5)c([N+](=O)[O-])c4)c(Oc4cnc5[nH]ccc5c4)c3)CC2)=C(c2ccc(Cl)cc2)C1 (stereo not shown) [Compound 319, 4-(4-{[2-(4-chlorophenyl)-4,4-dimethylcyclohex-1-en-1-yl]methyl}piperazin-1-yl)-N-{[4-({[4-(methylsulfonyl)morpholin-2-yl]methyl}amino)-3-nitrophenyl]sulfonyl}-2-(1H-pyrrolo[2,3-b]pyridin-5-yloxy)benzamide] | > 11.00
6 | CC1(C)CCC(CN2CCN(c3ccc(C(=O)NS(=O)(=O)c4ccc(OCC5CCOC(C)(C)C5)c([N+](=O)[O-])c4)c(Oc4cnc5[nH]ccc5c4)c3)CC2)=C(c2ccc(Cl)cc2)C1 (stereo not shown) [Compound 51, 4-(4-{[2-(4-chlorophenyl)-4,4-dimethylcyclohex-1-en-1-yl]methyl}piperazin-1-yl)-N-({4-[(2,2-dimethyltetrahydro-2H-pyran-4-yl)methoxy]-3-nitrophenyl}sulfonyl)-2-(1H-pyrrolo[2,3-b]pyridin-5-yloxy)benzamide] | > 11.00
7 | CC1(C)CCC(CN2CCN(c3ccc(C(=O)NS(=O)(=O)c4ccc(OCC5(F)CCN(S(C)(=O)=O)CC5)c([N+](=O)[O-])c4)c(Oc4cnc5[nH]ccc5c4)c3)CC2)=C(c2ccc(Cl)cc2)C1 [Compound 194, 4-(4-{[2-(4-chlorophenyl)-4,4-dimethylcyclohex-1-en-1-yl]methyl}piperazin-1-yl)-N-[(4-{[4-fluoro-1-(methylsulfonyl)piperidin-4-yl]methoxy}-3-nitrophenyl)sulfonyl]-2-(1H-pyrrolo[2,3-b]pyridin-5-yloxy)benzamide] | > 11.00
8 | CC(C)N1CCC2(CCC(c3ccc(Cl)cc3)=C(CN3CCN(c4ccc(C(=O)NS(=O)(=O)c5cnc(OCC6CCOCC6)c(Cl)c5)c(Oc5cnc6[nH]ccc6c5)c4)CC3)C2)CC1 [Compound 268, 4-(4-{[9-(4-chlorophenyl)-3-isopropyl-3-azaspiro[5.5]undec-8-en-8-yl]methyl}piperazin-1-yl)-N-{[5-chloro-6-(tetrahydro-2H-pyran-4-ylmethoxy)pyridin-3-yl]sulfonyl}-2-(1H-pyrrolo[2,3-b]pyridin-5-yloxy)benzamide] | > 11.00
9 | CC1(C)CCC(CN2CCN(c3ccc(C(=O)NS(=O)(=O)c4ccc(OC[C@H]5CCN(C6COC6)C5)c([N+](=O)[O-])c4)c(Oc4cnc5[nH]ccc5c4)c3)CC2)=C(c2ccc(Cl)cc2)C1 [Compound 184, 4-(4-{[2-(4-chlorophenyl)-4,4-dimethylcyclohex-1-en-1-yl]methyl}piperazin-1-yl)-N-[(3-nitro-4-{[(3S)-1-oxetan-3-ylpyrrolidin-3-yl]methoxy}phenyl)sulfonyl]-2-(1H-pyrrolo[2,3-b]pyridin-5-yloxy)benzamide] | > 11.00
10 | CN1CCC(Nc2ccc(S(=O)(=O)NC(=O)c3ccc(N4CCN(CC5=C(c6ccc(Cl)cc6)CC(C)(C)CC5)CC4)cc3Oc3cnc4[nH]ccc4c3)cc2[N+](=O)[O-])CC1 [Compound 4, 4-(4-{[2-(4-chlorophenyl)-4,4-dimethylcyclohex-1-en-1-yl]methyl}piperazin-1-yl)-N-({4-[(1-methylpiperidin-4-yl)amino]-3-nitrophenyl}sulfonyl)-2-(1H-pyrrolo[2,3-b]pyridin-5-yloxy)benzamide] | > 11.00
11 | CC1(C)CC(c2ccc(Cl)cc2)=C(CN2CCN(c3ccc(C(=O)NS(=O)(=O)c4cnc(OCC5CCOCC5)c(Cl)c4)c(Oc4cnc5[nH]ccc5c4)c3)CC2)CO1 [Compound 41, 4-(4-{[4-(4-chlorophenyl)-6,6-dimethyl-5,6-dihydro-2H-pyran-3-yl]methyl}piperazin-1-yl)-N-{[5-chloro-6-(tetrahydro-2H-pyran-4-ylmethoxy)pyridin-3-yl]sulfonyl}-2-(1H-pyrrolo[2,3-b]pyridin-5-yloxy)benzamide] | > 11.00
12 | CC[C@]1(O)CC[C@@H](CNc2ccc(S(=O)(=O)NC(=O)c3ccc(N4CCN(CC5=C(c6ccc(Cl)cc6)CC(C)(C)CC5)CC4)cc3Oc3cnc4[nH]ccc4c3)cc2[N+](=O)[O-])CC1 [Compound 358, 4-(4-{[2-(4-chlorophenyl)-4,4-dimethylcyclohex-1-en-1-yl]methyl}piperazin-1-yl)-N-[(4-{[(trans-4-ethyl-4-hydroxycyclohexyl)methyl]amino}-3-nitrophenyl)sulfonyl]-2-(1H-pyrrolo[2,3-b]pyridin-5-yloxy)benzamide] | > 11.00
13 | CC1(C)CCC(CN2CCN(c3ccc(C(=O)NS(=O)(=O)c4ccc(NCC5CCN(C(CF)CF)CC5)c([N+](=O)[O-])c4)c(Oc4cnc5[nH]ccc5c4)c3)CC2)=C(c2ccc(Cl)cc2)C1 [Compound 172, 4-(4-{[2-(4-chlorophenyl)-4,4-dimethylcyclohex-1-en-1-yl]methyl}piperazin-1-yl)-N-({4-[({1-[2-fluoro-1-(fluoromethyl)ethyl]piperidin-4-yl}methyl)amino]-3-nitrophenyl}sulfonyl)-2-(1H-pyrrolo[2,3-b]pyridin-5-yloxy)benzamide] | > 11.00
14 | CC1(C)CCC(CN2CCN(c3ccc(C(=O)NS(=O)(=O)c4ccc(NCC5CN(C(CF)CF)CCO5)c([N+](=O)[O-])c4)c(Oc4cnc5[nH]ccc5c4)c3)CC2)=C(c2ccc(Cl)cc2)C1 (stereo not shown) [Compound 252, 4-(4-{[2-(4-chlorophenyl)-4,4-dimethylcyclohex-1-en-1-yl]methyl}piperazin-1-yl)-N-{[4-({[4-(1,3-difluoropropan-2-yl)morpholin-2-yl]methyl}amino)-3-nitrophenyl]sulfonyl}-2-(1H-pyrrolo[2,3-b]pyridin-5-yloxy)benzamide] | > 11.00
15 | CN1CCC(COc2ncc(S(=O)(=O)NC(=O)c3ccc(N4CCN(CC5=C(c6ccc(Cl)cc6)CC(C)(C)CC5)CC4)cc3Oc3cnc4[nH]ccc4c3)cc2Br)CC1 [Compound 47, N-({5-bromo-6-[(1-methylpiperidin-4-yl)methoxy]pyridin-3-yl}sulfonyl)-4-(4-{[2-(4-chlorophenyl)-4,4-dimethylcyclohex-1-en-1-yl]methyl}piperazin-1-yl)-2-(1H-pyrrolo[2,3-b]pyridin-5-yloxy)benzamide] | > 11.00
16 | CN1CC(Nc2ccc(S(=O)(=O)NC(=O)c3ccc(N4CCN(CC5=C(c6ccc(Cl)cc6)CC(C)(C)CC5)CC4)cc3Oc3cnc4[nH]ccc4c3)cc2[N+](=O)[O-])CC1=O (stereo not shown) [Compound 202, 4-(4-{[2-(4-chlorophenyl)-4,4-dimethylcyclohex-1-en-1-yl]methyl}piperazin-1-yl)-N-({4-[(1-methyl-5-oxopyrrolidin-3-yl)amino]-3-nitrophenyl}sulfonyl)-2-(1H-pyrrolo[2,3-b]pyridin-5-yloxy)benzamide] | > 11.00
17 | CC1(C)CCC(CN2CCN(c3ccc(C(=O)NS(=O)(=O)c4ccc(OCC5CCN(C6COC6)CC5)c([N+](=O)[O-])c4)c(Oc4cnc5[nH]ccc5c4)c3)CC2)=C(c2ccc(Cl)cc2)C1 [Compound 191, 4-(4-{[2-(4-chlorophenyl)-4,4-dimethylcyclohex-1-en-1-yl]methyl}piperazin-1-yl)-N-({3-nitro-4-[(1-oxetan-3-ylpiperidin-4-yl)methoxy]phenyl}sulfonyl)-2-(1H-pyrrolo[2,3-b]pyridin-5-yloxy)benzamide] | > 11.00
18 | CC1(C)CCC(CN2CCN(c3ccc(C(=O)NS(=O)(=O)c4ccc(NC5CN(C6CCOC6)C5)c([N+](=O)[O-])c4)c(Oc4cnc5[nH]ccc5c4)c3)CC2)=C(c2ccc(Cl)cc2)C1 (stereo not shown) [Compound 117, 4-(4-{[2-(4-chlorophenyl)-4,4-dimethylcyclohex-1-en-1-yl]methyl}piperazin-1-yl)-N-({3-nitro-4-[(1-tetrahydrofuran-3-ylazetidin-3-yl)amino]phenyl}sulfonyl)-2-(1H-pyrrolo[2,3-b]pyridin-5-yloxy)benzamide] | > 11.00
19 | O=C(NS(=O)(=O)c1cnc(OCC2(F)CCN(C3COC3)CC2)c(Cl)c1)c1ccc(N2CCN(CC3=C(c4ccc(Cl)cc4)CC4(CC3)CC4)CC2)cc1Oc1cnc2[nH]ccc2c1 [Compound 345, N-[(5-chloro-6-{[4-fluoro-1-(oxetan-3-yl)piperidin-4-yl]methoxy}pyridin-3-yl)sulfonyl]-4-(4-{[5-(4-chlorophenyl)spiro[2.5]oct-5-en-6-yl]methyl}piperazin-1-yl)-2-(1H-pyrrolo[2,3-b]pyridin-5-yloxy)benzamide] | > 11.00

— patent publication US10213433B2 (AbbVie Inc., priority 2010, dated 2019)
